The values below come from US10723716B2, “Alpha-helix mimetics as modulators of Abeta self-assembly” (New York University, priority 2016, dated 2020).

One assay concerns the target T1, Aβ42 (Homo sapiens, UniProt P05067).
T1 construct: Cleavage of APP results in several Aβ isoforms; The predominant species are Aβ42 and Aβ40; purchased Anaspec (Fremont, Calif., USA)
Put plainly: PICUP SDS-PAGE of Aβ42 oligomers. Format: biochemical. The note with it: 5 μM Aβ42, equimolar ratio. How it is done:
The reaction mixture was irradiated for 30 s using filament lamp (power=150 W) by keeping it 20 cm away from the bottom of the reaction tubes. The cross-linking reaction was then quenched immediately with dithiothreitol (1 M, 1 μL, Sigma Aldrich, St. Louis, Mo., USA). The samples were incubated on ice for 15 min. followed by the addition of SDS buffer. The samples were heated at 90° C. for 5 min. and then centrifuged. […] The samples were applied to Nu-PAGE electrophoresis in 12% Bis-Tris gels with SDS-PAGE buffer. The protein samples were stained with a silver stain kit from Sigma Aldrich (St. Louis, Mo., USA).

In a further assay the target is T2, Aβ40 (Homo sapiens, UniProt P05067).
T2 construct: Cleavage of APP results in several Aβ isoforms; The predominant species are Aβ42 and Aβ40; purchased Anaspec (Fremont, Calif., USA)
T2 sequence (P05067 672-711 limits assumed): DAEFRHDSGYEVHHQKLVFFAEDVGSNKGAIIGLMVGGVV
Put plainly: Isothermal titration calorimetry (ITC). Format: binding. How it is done:
ITC experiments were performed in a NANO-ITC (TA instruments, New Castle, Del., USA). […] The heat associated with each injection was calculated by integrating each heat burst curve using NanoAnalyze software (New Castle, Del., USA). […] No parameter was constrained during the fitting. The data were extracted from the best fit after 10,000 iterations.
In general terms: ITC needs no label: the signal is the heat of the interaction.

T1 sequence (P05067 672-713 limits assumed): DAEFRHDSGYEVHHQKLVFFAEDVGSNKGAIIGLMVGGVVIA

The term Kd denotes a measure of binding affinity in units of concentration. Consider `COC(=O)c1ccc(NC(=O)c2ccc(NC(=O)c3ccc([N+](=O)[O-])c(OCc4ccccc4)n3)c(OCCCN)n2)c(OCCCN)n1` [ADH-41], for which the “higher order oligomers of Aβ42 (PICUP, SDS-PAGE)” value on Aβ42 (24 h and 36 h) is on record as “sparse populations”; on Aβ42 (up to 12 h), “no higher order oligomers”. The molecule also came in with a Kd at Aβ40 of 700 ± 100 nM.
